{
  "source": "patent US7674819B2",
  "about": "(Warner-Lambert Company LLC, priority 2005, dated 2010)",
  "target": "T1, hAR (Homo sapiens, UniProt P10275)",
  "T1 sequence (P10275 1-920)": "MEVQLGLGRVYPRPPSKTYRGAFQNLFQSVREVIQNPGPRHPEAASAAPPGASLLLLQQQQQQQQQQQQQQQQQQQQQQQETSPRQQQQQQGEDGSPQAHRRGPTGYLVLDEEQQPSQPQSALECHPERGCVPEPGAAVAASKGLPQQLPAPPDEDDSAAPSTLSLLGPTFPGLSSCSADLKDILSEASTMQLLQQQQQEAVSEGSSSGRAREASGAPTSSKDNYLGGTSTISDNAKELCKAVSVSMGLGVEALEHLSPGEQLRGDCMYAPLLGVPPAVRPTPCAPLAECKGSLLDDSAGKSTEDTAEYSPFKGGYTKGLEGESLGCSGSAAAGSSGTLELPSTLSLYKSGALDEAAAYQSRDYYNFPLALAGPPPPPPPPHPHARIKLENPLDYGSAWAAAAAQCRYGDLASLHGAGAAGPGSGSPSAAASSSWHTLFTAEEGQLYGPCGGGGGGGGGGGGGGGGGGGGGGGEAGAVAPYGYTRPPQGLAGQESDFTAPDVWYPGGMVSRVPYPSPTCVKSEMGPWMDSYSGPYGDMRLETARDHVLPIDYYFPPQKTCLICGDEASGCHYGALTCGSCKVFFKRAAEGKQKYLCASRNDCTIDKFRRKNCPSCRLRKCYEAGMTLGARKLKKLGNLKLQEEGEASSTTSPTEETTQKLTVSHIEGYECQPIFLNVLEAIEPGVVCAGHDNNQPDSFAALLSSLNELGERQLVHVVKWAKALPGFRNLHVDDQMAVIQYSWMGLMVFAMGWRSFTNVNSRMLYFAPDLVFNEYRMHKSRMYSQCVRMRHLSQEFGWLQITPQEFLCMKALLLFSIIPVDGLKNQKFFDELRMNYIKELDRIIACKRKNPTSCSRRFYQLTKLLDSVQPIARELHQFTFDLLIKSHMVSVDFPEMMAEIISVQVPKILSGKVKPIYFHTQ",
  "assay": "Competitive binding of 3H-DHT to baculovirus/Sf9 generated hAR extracts",
  "conditions": "one hour at 4° C., mean of multiple tests",
  "description": "The description below describes how the assay was carried out.\nCompetitive binding analysis was performed on baculovirus/Sf9 generated hAR extracts in the presence or absence of different concentrations of test agent and a fixed concentration of ^3H-dihydrotestosterone (^3H-DHT) as tracer. This binding assay method is a modification of a protocol previously described (Liao S., et. al. J. Steroid Biochem. 20:11-17 1984). Briefly, progressively decreasing concentrations of compounds are incubated in the presence of hAR extract (Chang et al. P.N.A.S. Vol. 89, pp. […], 1992), hydroxylapatite, and 1 nM^3H-DHT for one hour at 4° C. Subsequently, the binding reactions are washed three times to completely remove excess unbound ^3H-DHT. hAR bound ^3H-DHT levels are determined in the presence of compounds (i.e. competitive binding) and compared to levels bound when no competitor is present (i.e. maximum binding). Compound binding affinity to the hAR is expressed as the concentration of compound at which one half of the maximum binding is inhibited.",
  "key": {"[1]": {"conditions": "concentration at which one half of maximum binding of 1 nM 3H-DHT to hAR is inhibited, read-out: IC50"}, "[2]": {"conditions": "IC50, concentration at which one half of maximum binding of 1 nM 3H-DHT to hAR is inhibited"}},
  "note": "Like-named read-outs stand apart in the source and are kept apart here.",
  "data": [
    {"smiles": "CCOc1cccc(-c2nnc(CN3CC(C)(C)C(Oc4ccc(C#N)c(C(F)(F)F)c4)C3=O)o2)c1", "note": "(stereo not drawn) [Example 124, 4-{1-[5-(3-Ethoxy-phenyl)-[1,3,4]oxadiazol-2-ylmethyl]-4,4-dimethyl-2-oxo-pyrrolidin-3-yloxy}-2-trifluoromethyl-benzonitrile]", "values": [
      {"measurement": "IC50", "setting": "[1]", "value": 404, "unit": "nM"}
    ]},
    {"smiles": "Cc1cc(S(=O)(=O)N2CC(C)(C)C(Oc3ccc(C#N)c(C(F)(F)F)c3)C2=O)c(C)s1", "note": "(stereo not drawn) [Example 92, 4-[1-(2,5-Dimethyl-thiophene-3-sulfonyl)-4,4-dimethyl-2-oxo-pyrrolidin-3-yloxy]-2-trifluoromethyl-benzonitrile]", "values": [
      {"measurement": "IC50", "setting": "[1]", "value": 334, "unit": "nM"}
    ]},
    {"smiles": "CCCCS(=O)(=O)N1CC(C)(C)C(Oc2ccc(C#N)c(C(F)(F)F)c2)C1=O", "note": "(stereo not drawn) [Example 90, 4-[1-(Butane-1-sulfonyl)-4,4-dimethyl-2-oxo-pyrrolidin-3-yloxy]-2-trifluoromethyl-benzonitrile]", "values": [
      {"measurement": "IC50", "setting": "[1]", "value": 309, "unit": "nM"}
    ]},
    {"smiles": "CC1(C)CN(CC2CCC2)C(=O)C1Oc1ccc(C#N)c(C(F)(F)F)c1", "note": "(stereo not drawn) [Example 64, 4-(1-Cyclobutylmethyl-4,4-dimethyl-2-oxo-pyrrolidin-3-yloxy)-2-trifluoromethyl-benzonitrile]", "values": [
      {"measurement": "IC50", "setting": "[1]", "value": 254, "unit": "nM"}
    ]},
    {"smiles": "CC1(C)CN(Cc2nc(-c3cccc([N+](=O)[O-])c3)no2)C(=O)C1Oc1ccc(C#N)c(C(F)(F)F)c1", "note": "(stereo not drawn) [Example 67, 4-{4,4-Dimethyl-1-[3-(3-nitro-phenyl)-[1,2,4]oxadiazol-5-ylmethyl]-2-oxo-pyrrolidin-3-yloxy}-2-trifluoromethyl-benzonitrile]", "values": [
      {"measurement": "IC50", "setting": "[1]", "value": 437, "unit": "nM"}
    ]},
    {"smiles": "Cc1ccc(S(=O)(=O)N2CC(C)(C)C(Oc3ccc(C#N)c(C(F)(F)F)c3)C2=O)s1", "note": "(stereo not drawn) [Example 85, 4-[4,4-Dimethyl-1-(5-methyl-thiophene-2-sulfonyl)-2-oxo-pyrrolidin-3-yloxy]-2-trifluoromethyl-benzonitrile]", "values": [
      {"measurement": "IC50", "setting": "[1]", "value": 233, "unit": "nM"}
    ]},
    {"smiles": "Cc1noc(C)c1C(=O)N1CC(C)(C)C(Oc2ccc(C#N)c(C(F)(F)F)c2)C1=O", "note": "(stereo not drawn) [Example 106, 4-[1-(3,5-Dimethyl-isoxazole-4-carbonyl)-4,4-dimethyl-2-oxo-pyrrolidin-3-yloxy]-2-trifluoromethyl-benzonitrile]", "values": [
      {"measurement": "IC50", "setting": "[1]", "value": 342, "unit": "nM"}
    ]},
    {"smiles": "COc1ccccc1-c1nnc(C(C)N2CC(C)(C)C(Oc3ccc(C#N)c(C(F)(F)F)c3)C2=O)o1", "note": "(stereo not drawn) [Example 133, 4-(1-{1-[5-(2-methoxy-phenyl)-[1,3,4]oxadiazol-2-yl]-ethyl}-4,4-dimethyl-2-oxo-pyrrolidin-3-yloxy)-2-trifluoromethyl-benzonitrile]", "values": [
      {"measurement": "IC50", "setting": "[2]", "value": 60, "unit": "nM"}
    ]},
    {"smiles": "COc1ccc(CN2CC(C)(C)C(Oc3ccc(C#N)c(C(F)(F)F)c3)C2=O)cc1", "note": "(stereo not drawn) [Example 7, 4-[1-(4-Methoxy-benzyl)-4,4-dimethyl-2-oxo-pyrrolidin-3-yloxy]-2-trifluoromethyl-benzonitrile]", "values": [
      {"measurement": "IC50", "setting": "[2]", "value": 298, "unit": "nM"}
    ]},
    {"smiles": "Cc1onc(-c2ccccc2)c1CN1CC(C)(C)C(Oc2ccc(C#N)c(C(F)(F)F)c2)C1=O", "note": "(stereo not drawn) [Example 59, 4-[4,4-Dimethyl-1-(5-methyl-3-phenyl-isoxazol-4-ylmethyl)-2-oxo-pyrrolidin-3-yloxy]-2-trifluoromethyl-benzonitrile]", "values": [
      {"measurement": "IC50", "setting": "[1]", "value": 277, "unit": "nM"}
    ]},
    {"smiles": "CC1(C)CN(Cc2nnc(-c3cccc(Cl)c3)o2)C(=O)C1Oc1ccc(C#N)c(C(F)(F)F)c1", "note": "(stereo not drawn) [Example 120, 4-{1-[5-(3-Chloro-phenyl)-[1,3,4]oxadiazol-2-ylmethyl]-4,4-dimethyl-2-oxo-pyrrolidin-3-yloxy}-2-trifluoromethyl-benzonitrile]", "values": [
      {"measurement": "IC50", "setting": "[1]", "value": 347, "unit": "nM"}
    ]},
    {"smiles": "CC1(C)CN(CC2CCCCC2)C(=O)C1Oc1ccc(C#N)c(C(F)(F)F)c1", "note": "(stereo not drawn) [Example 53, 4-(1-Cyclohexylmethyl-4,4-dimethyl-2-oxo-pyrrolidin-3-yloxy)-2-trifluoromethyl-benzonitrile]", "values": [
      {"measurement": "IC50", "setting": "[1]", "value": 294, "unit": "nM"}
    ]},
    {"smiles": "CC1(C)CN(C(=O)c2cccs2)C(=O)C1Oc1ccc(C#N)c(C(F)(F)F)c1", "note": "(stereo not drawn) [Example 108, 4-[4,4-Dimethyl-2-oxo-1-(thiophene-2-carbonyl)-pyrrolidin-3-yloxy]-2-trifluoromethyl-benzonitrile]", "values": [
      {"measurement": "IC50", "setting": "[1]", "value": 370, "unit": "nM"}
    ]},
    {"smiles": "Cn1c(CN2CC(C)(C)C(Oc3ccc(C#N)c(C(F)(F)F)c3)C2=O)nc2ccccc21", "note": "(stereo not drawn) [Example 55, 4-[4,4-Dimethyl-1-(1-methyl-1H-benzoimidazol-2-ylmethyl)-2-oxo-pyrrolidin-3-yloxy]-2-trifluoromethyl-benzonitrile]", "values": [
      {"measurement": "IC50", "setting": "[1]", "value": 500, "unit": "nM"}
    ]},
    {"smiles": "CCCC(=O)N1CC(C)(C)C(Oc2ccc(C#N)c(C(F)(F)F)c2)C1=O", "note": "(stereo not drawn) [Example 102, 4-(1-Butyryl-4,4-dimethyl-2-oxo-pyrrolidin-3-yloxy)-2-trifluoromethyl-benzonitrile]", "values": [
      {"measurement": "IC50", "setting": "[1]", "value": 418, "unit": "nM"}
    ]},
    {"smiles": "COc1ccccc1CN1CC(C)(C)C(Oc2ccc(C#N)c(C(F)(F)F)c2)C1=O", "note": "(stereo not drawn) [Example 10, 4-[1-(2-Methoxy-benzyl)-4,4-dimethyl-2-oxo-pyrrolidin-3-yloxy]-2-trifluoromethyl-benzonitrile]", "values": [
      {"measurement": "IC50", "setting": "[2]", "value": 298, "unit": "nM"}
    ]},
    {"smiles": "COC(=O)c1ccc(S(=O)(=O)N2CC(C)(C)C(Oc3ccc(C#N)c(C(F)(F)F)c3)C2=O)o1", "note": "(stereo not drawn) [Example 100A, 5-[3-(4-Cyano-3-trifluoromethyl-phenoxy)-4,4-dimethyl-2-oxo-pyrrolidine-1-sulfonyl]-furan-2-carboxylic acid methyl ester]", "values": [
      {"measurement": "IC50", "setting": "[1]", "value": 242, "unit": "nM"}
    ]},
    {"smiles": "Cc1ccc(Cc2noc(CN3CC(C)(C)C(Oc4ccc(C#N)c(C(F)(F)F)c4)C3=O)n2)cc1", "note": "(stereo not drawn) [Example 43, 4-{4,4-Dimethyl-1-[3-(4-methyl-benzyl)-[1,2,4]oxadiazol-5-ylmethyl]-2-oxo-pyrrolidin-3-yloxy}-2-trifluoromethyl-benzonitrile]", "values": [
      {"measurement": "IC50", "setting": "[1]", "value": 283, "unit": "nM"}
    ]},
    {"smiles": "CC1(C)CN(C(=O)c2ccccc2)C(=O)C1Oc1ccc(C#N)c(C(F)(F)F)c1", "note": "(racemic) [Example 97, (±) 4-{1-Benzoyl-4,4-dimethyl-2-oxo-pyrrolidin-3-yloxy)-2-trifluoromethyl benzonitrile}]", "values": [
      {"measurement": "IC50", "setting": "[1]", "value": 311, "unit": "nM"}
    ]},
    {"smiles": "COc1ccccc1-c1nc(CN2CC(C)(C)C(Oc3ccc(C#N)c(C(F)(F)F)c3)C2=O)no1", "note": "(stereo not drawn) [Example 51, 4-{1-[5-(2-Methoxy-phenyl)-[1,2,4]oxadiazol-3-ylmethyl]-4,4-dimethyl-2-oxo-pyrrolidin-3-yloxy}-2-trifluoromethyl-benzonitrile]", "values": [
      {"measurement": "IC50", "setting": "[1]", "value": 321, "unit": "nM"}
    ]},
    {"smiles": "CCC(CC)C(=O)N1CC(C)(C)C(Oc2ccc(C#N)c(C(F)(F)F)c2)C1=O", "note": "(stereo not drawn) [Example 100E, 4-[1-(2-Ethyl-butyryl)-4,4-dimethyl-2-oxo-pyrrolidin-3-yloxy]-2-trifluoromethyl-benzonitrile]", "values": [
      {"measurement": "IC50", "setting": "[1]", "value": 372, "unit": "nM"}
    ]},
    {"smiles": "CC1(C)CN(Cc2cccc(C(=O)O)c2)C(=O)C1Oc1ccc(C#N)c(C(F)(F)F)c1", "note": "(stereo not drawn) [Example 26, 3-[3-(4-Cyano-3-trifluoromethyl-phenoxy)-4,4-dimethyl-2-oxo-pyrrolidin-1-ylmethyl]-benzoic acid]", "values": [
      {"measurement": "IC50", "setting": "[1]", "value": 343, "unit": "nM"}
    ]},
    {"smiles": "CC1(C)CN(CC2CC2)C(=O)C1Oc1ccc(C#N)c(C(F)(F)F)c1", "note": "(stereo not drawn) [Example 32, 4-(1-Cyclopropylmethyl-4,4-dimethyl-2-oxo-pyrrolidin-3-yloxy)-2-trifluoromethyl-benzonitrile]", "values": [
      {"measurement": "IC50", "setting": "[1]", "value": 420, "unit": "nM"}
    ]},
    {"smiles": "Cc1noc(C)c1S(=O)(=O)N1CC(C)(C)C(Oc2ccc(C#N)c(C(F)(F)F)c2)C1=O", "note": "(stereo not drawn) [Example 76, 4-[1-(3,5-Dimethyl-isoxazole-4-sulfonyl)-4,4-dimethyl-2-oxo-pyrrolidin-3-yloxy]-2-trifluoromethyl-benzonitrile]", "values": [
      {"measurement": "IC50", "setting": "[1]", "value": 430, "unit": "nM"}
    ]},
    {"smiles": "CC1(C)CN(Cc2nnc(-c3ccc(Cl)cc3)o2)C(=O)C1Oc1ccc(C#N)c(C(F)(F)F)c1", "note": "(stereo not drawn) [Example 125, 4-{1-[5-(4-Chloro-phenyl)-[1,3,4]oxadiazol-2-ylmethyl]-4,4-dimethyl-2-oxo-pyrrolidin-3-yloxy}-2-trifluoromethyl-benzonitrile]", "values": [
      {"measurement": "IC50", "setting": "[1]", "value": 250, "unit": "nM"}
    ]},
    {"smiles": "CCCN1CC(C)(C)[C@H](Oc2ccc(C#N)c(C(F)(F)F)c2)C1=O", "note": "[Example 4B, (−)-4-(1-Propyl-4,4-dimethyl-2-oxo-pyrrolidin-3-yloxy)-2-trifluoromethyl-benzonitrile (E1)]", "values": [
      {"measurement": "IC50", "setting": "[2]", "value": "> 10000", "unit": "nM"}
    ]},
    {"smiles": "CCCCCN1CC(C)(C)C(Oc2ccc(C#N)c(C(F)(F)F)c2)C1=O", "note": "(stereo not drawn) [Example 31, 4-(4,4-Dimethyl-2-oxo-1-pentyl-pyrrolidin-3-yloxy)-2-trifluoromethyl-benzonitrile]", "values": [
      {"measurement": "IC50", "setting": "[2]", "value": 268, "unit": "nM"}
    ]}
  ]
}
